# Measured values: article PMC3085043 (Chemico-biological interactions, 2010)
# Changes are numbered by the printed parent chain. Where two headings read alike, the source gives them in different places.
# Columns and labels:
# [1] = target: dicarbonyl-xylulose reductase (Homo sapiens, UniProt Q7Z4W1); assay: Reduction of FAL and GGAL by dicarbonyl-xylulose reductase; assay type: biochemical
# AKR1C15 [2] = target: T1, AKR1C15 (Rattus norvegicus, UniProt D3ZF77); settings: NADPH-linked reduction; reported values; cited from earlier work
# human AKR 1B1 = settings: cited from earlier work
# AKR 1C1 = target: T2, AKR 1C1 (Homo sapiens, UniProt Q04828); assay: Kinetic constants for FAL and GGAL reduction, AKR1C1; assay type: biochemical
# T2 sequence (Q04828 1-323): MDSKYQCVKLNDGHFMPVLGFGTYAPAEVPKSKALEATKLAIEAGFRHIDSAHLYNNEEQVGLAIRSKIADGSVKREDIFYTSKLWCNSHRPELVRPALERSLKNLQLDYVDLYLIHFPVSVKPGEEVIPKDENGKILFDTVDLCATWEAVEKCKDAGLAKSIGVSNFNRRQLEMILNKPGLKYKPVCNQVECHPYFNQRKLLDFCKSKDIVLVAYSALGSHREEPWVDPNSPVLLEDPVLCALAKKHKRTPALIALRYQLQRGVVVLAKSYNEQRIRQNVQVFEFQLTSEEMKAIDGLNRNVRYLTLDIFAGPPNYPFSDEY
# AKR 1C4 = target: T3, AKR 1C4 (Homo sapiens, UniProt P17516); assay: Kinetic constants for FAL and GGAL reduction, AKR1C4; assay type: biochemical; settings: 0.1 M potassium phosphate pH 7.4, 0.1 mM NADPH
# T3 sequence (P17516 1-323): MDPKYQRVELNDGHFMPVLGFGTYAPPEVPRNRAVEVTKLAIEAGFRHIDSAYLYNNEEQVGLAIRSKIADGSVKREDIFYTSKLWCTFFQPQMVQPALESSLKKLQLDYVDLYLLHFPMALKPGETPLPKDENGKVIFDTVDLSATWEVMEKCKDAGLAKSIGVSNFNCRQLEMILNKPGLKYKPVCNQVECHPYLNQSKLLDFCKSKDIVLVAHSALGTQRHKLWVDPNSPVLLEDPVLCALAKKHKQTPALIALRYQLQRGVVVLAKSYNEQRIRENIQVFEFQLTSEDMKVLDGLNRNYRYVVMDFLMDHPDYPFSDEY
# [3] = test system: low-MW FAL-R and GGAL-R from liver; assay: FAL-R/GGAL-R activity of low-MW reductase from rat liver; assay type: biochemical; settings: liver low-MW reductase
# [4] = target: microsomal FAL-DH and GGAL-DH (Rattus norvegicus, UniProt P30839); assay: NAD+-linked FAL-DH/GGAL-DH activity of solubilized hepatic microsomes; assay type: biochemical; settings: solubilized hepatic microsomes, NAD+-linked oxidation
# [5] = target: human carbonyl reductase 1 (Homo sapiens, UniProt P16152); assay: Reduction of FAL and GGAL by carbonyl reductase 1; assay type: biochemical
# AKR 1A1 = target: T4, AKR 1A1 (Homo sapiens, UniProt P14550); assay: Kinetic constants for FAL and GGAL reduction, AKR1A1; assay type: biochemical
# T4 sequence (P14550 1-325): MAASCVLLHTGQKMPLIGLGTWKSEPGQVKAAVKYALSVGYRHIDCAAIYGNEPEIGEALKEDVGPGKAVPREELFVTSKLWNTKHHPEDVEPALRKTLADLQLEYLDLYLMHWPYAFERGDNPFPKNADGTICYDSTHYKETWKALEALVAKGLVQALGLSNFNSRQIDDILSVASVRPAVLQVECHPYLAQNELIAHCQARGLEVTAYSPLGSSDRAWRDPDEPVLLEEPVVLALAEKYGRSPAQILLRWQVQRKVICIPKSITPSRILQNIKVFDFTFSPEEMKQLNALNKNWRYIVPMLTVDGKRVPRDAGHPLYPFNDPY
# [6] = target: T5, purified hepatic FAL-R (AKR1C9) (Rattus norvegicus, UniProt P23457); assay: Reductase activity of hepatic low-MW FAL-R purified to homogeneity; settings: purified liver enzyme
# T5 sequence (P23457 1-322): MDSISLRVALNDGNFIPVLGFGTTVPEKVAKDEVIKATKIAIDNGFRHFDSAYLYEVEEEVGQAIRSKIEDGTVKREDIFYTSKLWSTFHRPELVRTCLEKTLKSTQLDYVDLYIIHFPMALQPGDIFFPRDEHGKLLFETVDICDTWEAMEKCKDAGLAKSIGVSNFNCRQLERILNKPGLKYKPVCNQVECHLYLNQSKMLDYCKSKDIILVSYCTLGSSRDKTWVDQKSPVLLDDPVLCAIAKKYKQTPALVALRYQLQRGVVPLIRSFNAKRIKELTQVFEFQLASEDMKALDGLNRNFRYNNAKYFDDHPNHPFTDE
# AKR 1C3 = target: T6, AKR 1C3 (Homo sapiens, UniProt P42330); assay: Kinetic constants for FAL and GGAL reduction, AKR1C3; assay type: biochemical; settings: for Km / kcat: 0.1 M potassium phosphate pH 7.4, 0.1 mM NADPH
# T6 sequence (P42330 1-323): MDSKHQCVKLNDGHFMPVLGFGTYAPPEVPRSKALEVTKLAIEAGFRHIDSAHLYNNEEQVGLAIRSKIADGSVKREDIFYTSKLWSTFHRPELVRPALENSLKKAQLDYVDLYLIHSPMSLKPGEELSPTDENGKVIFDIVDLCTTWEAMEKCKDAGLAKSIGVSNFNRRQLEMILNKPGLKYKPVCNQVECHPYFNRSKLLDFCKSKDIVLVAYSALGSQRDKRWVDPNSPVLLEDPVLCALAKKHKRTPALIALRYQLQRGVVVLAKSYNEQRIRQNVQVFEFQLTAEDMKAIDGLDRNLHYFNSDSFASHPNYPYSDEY
# human AKR 1B10 = settings: 0.1 M potassium phosphate pH 7.4, 0.1 mM NADPH; cited from earlier work
# AKR 1C2 = target: T7, AKR 1C2 (Homo sapiens, UniProt P52895); assay: Kinetic constants for FAL and GGAL reduction, AKR1C2; assay type: biochemical
# T7 sequence (P52895 1-323): T2 sequence (Q04828 1-323) with T38V, R47H, L54V, C87S, V151M, R170H, Q172L
# [7] = target: T8, low-MW FAL-R and GGAL-R from stomach, lung and colon (Rattus norvegicus, UniProt D3ZF77); assay: FAL-R/GGAL-R activity of low-MW reductases from rat stomach, lung and colon; assay type: biochemical; settings: extra-hepatic enzymes (stomach, lung, colon)
# T8 sequence (D3ZF77 1-324): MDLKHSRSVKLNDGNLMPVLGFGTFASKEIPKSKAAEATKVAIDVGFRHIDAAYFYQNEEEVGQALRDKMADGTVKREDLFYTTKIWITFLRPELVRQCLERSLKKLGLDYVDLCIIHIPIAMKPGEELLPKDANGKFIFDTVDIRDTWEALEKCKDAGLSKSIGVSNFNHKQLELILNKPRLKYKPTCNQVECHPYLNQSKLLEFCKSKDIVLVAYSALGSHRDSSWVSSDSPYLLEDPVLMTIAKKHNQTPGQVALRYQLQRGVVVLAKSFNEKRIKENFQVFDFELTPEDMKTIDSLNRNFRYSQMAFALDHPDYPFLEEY
# [8] = target: dehydrogenase/reductase (SDR family) member 4 (Homo sapiens, UniProt Q9BTZ2); assay: Reduction of FAL and GGAL by dehydrogenase/reductase; assay type: biochemical
# AKR1C15 [9] = target: T1, AKR1C15; assay: Reduction of isoprenyl aldehydes by AKR1C15; assay type: biochemical; settings: NADPH-linked reduction
# [10] = 0.1 M potassium phosphate pH 7.4, 0.1 mM NADPH
# [11] = calculated from the specific activity with 10 μM GGAL
# Sequence of microsomal FAL-DH and GGAL-DH (P30839 whole entry): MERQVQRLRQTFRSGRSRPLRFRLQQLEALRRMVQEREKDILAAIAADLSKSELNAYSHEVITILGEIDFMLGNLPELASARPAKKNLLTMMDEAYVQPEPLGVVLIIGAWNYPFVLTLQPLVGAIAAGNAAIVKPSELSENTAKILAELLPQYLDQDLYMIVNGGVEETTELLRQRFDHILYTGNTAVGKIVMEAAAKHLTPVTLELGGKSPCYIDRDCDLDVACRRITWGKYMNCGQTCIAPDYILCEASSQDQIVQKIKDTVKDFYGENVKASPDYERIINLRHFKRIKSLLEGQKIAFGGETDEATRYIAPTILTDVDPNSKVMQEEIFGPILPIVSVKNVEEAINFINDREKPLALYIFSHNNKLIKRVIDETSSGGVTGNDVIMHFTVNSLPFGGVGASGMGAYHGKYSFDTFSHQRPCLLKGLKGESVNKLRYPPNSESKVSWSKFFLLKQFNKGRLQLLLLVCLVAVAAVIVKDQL
# Sequence of human carbonyl reductase 1 (P16152 whole entry): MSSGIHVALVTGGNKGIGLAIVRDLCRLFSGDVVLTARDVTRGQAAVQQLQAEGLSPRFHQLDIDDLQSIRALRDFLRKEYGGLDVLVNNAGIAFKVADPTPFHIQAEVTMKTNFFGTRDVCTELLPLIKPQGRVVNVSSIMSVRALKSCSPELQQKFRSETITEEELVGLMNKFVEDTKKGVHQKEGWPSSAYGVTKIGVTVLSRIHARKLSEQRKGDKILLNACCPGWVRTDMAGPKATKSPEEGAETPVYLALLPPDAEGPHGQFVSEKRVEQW
# Sequence of dicarbonyl-xylulose reductase (Q7Z4W1 whole entry): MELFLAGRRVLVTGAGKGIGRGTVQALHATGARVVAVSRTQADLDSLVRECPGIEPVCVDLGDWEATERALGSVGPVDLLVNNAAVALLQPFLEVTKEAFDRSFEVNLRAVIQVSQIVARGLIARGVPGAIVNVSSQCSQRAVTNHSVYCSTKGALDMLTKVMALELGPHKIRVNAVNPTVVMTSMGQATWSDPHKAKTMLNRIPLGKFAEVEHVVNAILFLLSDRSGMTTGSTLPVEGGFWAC
# Sequence of dehydrogenase/reductase (SDR family) member 4 (Q9BTZ2 whole entry): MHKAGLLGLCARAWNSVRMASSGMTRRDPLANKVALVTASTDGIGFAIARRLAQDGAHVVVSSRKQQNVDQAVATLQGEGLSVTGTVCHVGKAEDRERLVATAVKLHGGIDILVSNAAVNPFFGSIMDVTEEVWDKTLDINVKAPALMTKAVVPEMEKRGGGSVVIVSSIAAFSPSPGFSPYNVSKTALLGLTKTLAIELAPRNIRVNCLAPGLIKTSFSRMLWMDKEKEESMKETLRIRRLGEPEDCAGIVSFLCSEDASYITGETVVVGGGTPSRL
SMILES,reduction by the enzyme [1],Km (AKR 1C4) [µM],kcat (AKR 1C4) [s⁻¹],Km [3] [µM],Km [4] [µM],Vmax [4] [mU/mg],reduction by the enzyme [5],Km [6] [µM],Km (AKR 1C3) [µM],kcat (AKR 1C3) [s⁻¹],Km (human AKR 1B10) [µM],kcat (human AKR 1B10) [s⁻¹],Km [7] [µM],reduction by the enzyme [8],other results
"CC(C)=CCCC(C)=CCCC(C)=CC=O [FAL, farnesal]",hardly reduced,4.7,0.0183,26,2,12,hardly reduced,30,2.6,0.045,2.5,0.383,6 to 8,hardly reduced,Km (AKR1C15 [2]): 5.6 µM; Km (human AKR 1B1; [10]): 37 µM; kcat (human AKR 1B1; [10]): 0.45 s⁻¹; Km (AKR 1C1; [10]): 3.1 µM; kcat (AKR 1C1; [10]): 0.0283 s⁻¹; Km (AKR 1A1; [10]): 60 µM; kcat (AKR 1A1; [10]): 0.217 s⁻¹; Km (AKR 1C2; [10]): 1.1 µM; kcat (AKR 1C2; [10]): 0.03 s⁻¹
"CC(C)=CCC/C(C)=C/CC/C(C)=C/CC/C(C)=C/C=O [GGAL, geranylgeranial]",hardly reduced,1.1,0.0147,2.1,0.7,4.2,hardly reduced,3.9,0.3,0.06,0.9,0.125,0.2 to 0.5,hardly reduced,"kcat (value in parenthesis) (human AKR 1B1; [11]): (0.3) ^b min^−1; kcat (value in parenthesis) (AKR 1C1; [11]): (0.3) ^b min^−1; Km (AKR1C15 [9]): 0.2 µM; kcat (value in parenthesis) (AKR 1A1; [11]): (0.8) ^b min^−1; kcat/Km value relative to that for prostaglandin D2 (AKR 1C3; higher than for prostaglandin D2, best known endogenous substrate): 12 fold; kcat (value in parenthesis) (AKR 1C2; [11]): (0.4) ^b min^−1"
